Laboratory results published in patent US20260103471A1, “CYCLIC UREA THIAZOLYL COMPOUNDS FOR TREATMENT OF HSV” (Assembly Biosciences, Inc., priority 2022, published 2026).

These compounds were tested on HSV-2 G strain (assay: HSV-2 Antiviral Assay (Vero cells, cell viability)). Conditions: Human alphaherpesvirus 2, Vero, 120 h, Vero cells, 160 TCID50 HSV-2 G strain, 5 days, cell viability.
Assay type: cell-based
Protocol: Vero cells were cultured in Dulbecco's Modified Eagle Medium (DMVEM) supplemented with […] and 100 units/mL penicillin and streptomycin. The cells were passaged 2-3 times per week to maintain sub-confluent densities.
Vero cells were seeded into 96-well plates at a density of 1.0×10^4 cells per well and allowed to attach overnight. Following attachment, the media was replaced with 50 μL of infection medium (DMEM supplemented with 2% fetal bovine serum and 100 units/mL penicillin and streptomycin). A Tecan D300e digital dispenser was then used to add compounds to the culture using an 8-point 3-fold serial dilution format. The DMSO concentration was normalized to 0.5% for all treatments. Following compound addition, 50 μL of infection medium containing 160 TCID50 HSV-2 G strain was added to the cells and incubated at 37° C. for 5 days. After the incubation, 10 μL/well of WST-8 chromogenic reagent was added and the plates incubated at 37° C. for 3 hours. Following the incubation, cell viability was quantified by measuring the absorbance at 460 nm and 620 nm using a Tecan Infinite M1000 Pro plate reader.

Structure (SMILES) | EC50
Cc1nc(N2CCCN(c3ccc(-c4cc(F)ccc4F)cc3)C2=O)sc1S(=O)(=O)NO [Compound 385] | 100 to 1000 nM
Cc1nc(N2CCCN(c3ccc(-c4cc(C5CC5)ccc4F)cc3)C2=O)sc1S(N)(=O)=O [Compound 205] | 100 to 1000 nM
Cc1nc(N2CCCN(c3ccc(-c4cc(F)ccc4-c4cnn(C)c4)cc3)C2=O)sc1S(N)(=O)=O [Compound 207] | 100 to 1000 nM
Cc1nc(N2CCCN(c3ccc(-c4cccc5c4OCO5)cc3)C2=O)sc1S(N)(=O)=O [Compound 81] | 100 to 1000 nM
Cc1nc(N2CCCN(c3ccc(-c4cc(F)cc5cc(C(C)(C)O)sc45)cc3)C2=O)sc1S(N)(=O)=O [Compound 281] | 100 to 1000 nM
Cc1nc(N2CCCN(c3ccc(-c4cc(C(F)(F)F)ccn4)cc3)C2=O)sc1S(N)(=O)=O [Compound 240] | 100 to 1000 nM
Cc1nc(N2CCCN(c3ccc(-c4cccc5c4cnn5S(C)(=O)=O)cc3)C2=O)sc1S(N)(=O)=O [Compound 57] | 1000 to 5000 nM
Cc1nc(N2CCCN(c3ccc(-c4cc(C(F)(F)F)cc5c4c(C#N)cn5C)cc3)C2=O)sc1S(N)(=O)=O [Compound 290] | 1000 to 5000 nM
Cc1nc(N2CCCN(c3ccc(-c4cc(F)cc5c4c(C#N)cn5C)cc3)C2=O)sc1S(N)(=O)=O [Compound 294] | 100 to 1000 nM
Cc1nc(N2CCCN(c3ccc(-c4cc(F)ccc4F)cc3)C2=O)sc1S(=O)(=O)NC(C)(C)CO [Compound 402] | 100 to 1000 nM
Cc1nc(N2CCCN(c3ccc(-c4snc5c(F)ccc(F)c45)cc3)C2=O)sc1S(N)(=O)=O [Compound 307] | 100 to 1000 nM
Cc1nc(N2CCCN(c3ccc(-c4ccc(F)cc4)cc3)C2=O)sc1S(N)(=O)=O [Compound 189] | 100 to 1000 nM
Cc1nc(N2CCCN(c3ccc(-c4cc(C(F)(F)F)cc5c4c(CO)cn5C)cc3)C2=O)sc1S(N)(=O)=O [Compound 292] | 1000 to 5000 nM
Cc1nc(N2CCCN(c3ccc(-c4cncc5nn(C)cc45)cc3)C2=O)sc1S(N)(=O)=O [Compound 271] | 1000 to 5000 nM
Cc1nc(N2CCCN(c3ccc(-c4ccc(F)c(Cl)c4)cc3)C2=O)sc1S(N)(=O)=O [Compound 186] | 100 to 1000 nM
Cc1nc(N2CCCN(c3ccc(-c4cc(C(C)(C)C)ccc4F)cc3)C2=O)sc1S(N)(=O)=O [Compound 204] | 1000 to 5000 nM
COc1c(F)cc(F)cc1-c1ccc(N2C[C@@H](C(C)(C)O)CN(c3nc(C)c(S(N)(=O)=O)s3)C2=O)cc1 (single isomer, unassigned) [Compound 346] | 100 to 1000 nM
Cc1nc(N2CCCCN(c3ccc(-c4cc(F)cc5nsnc45)cc3)C2=O)sc1S(N)(=O)=O [Compound 313] | < 100 nM
Cc1nc(N2CCC(C)N(c3ccc(-c4cc(F)ccc4F)cc3)C2=O)sc1S(N)(=O)=O (centres unmarked) [Compound 332] | < 100 nM
Cc1nc(N2CCCN(c3ccc(-c4cc(F)cc5c4c(F)cn5C)cc3)C2=O)sc1S(N)(=O)=O [Compound 295] | < 100 nM
Cc1csc(-c2ccc(N3CC4(CC4)CN(c4nc(C)c(S(N)(=O)=O)s4)C3=O)cc2)n1 [Compound 114] | < 100 nM
Cc1nc(N2CCCN(c3ccc(-c4cc(F)ccc4F)cc3)C2=O)sc1S(=O)(=O)N1CCC(N)C1 (centres unmarked) [Compound 397] | 100 to 1000 nM
COc1cc(-c2ccc(N3CCCN(c4nc(C)c(S(N)(=O)=O)s4)C3=O)cc2)c2scnc2c1 [Compound 252] | < 100 nM
Cc1nc(N2CCCN(c3ccc(-c4ccccc4C#CC4CC4)cc3)C2=O)sc1S(N)(=O)=O [Compound 220] | < 100 nM
COc1ccc(F)cc1-c1ccc(N2CC(C)CN(c3nc(C)c(S(N)(=O)=O)s3)C2=O)cc1 (centres unmarked) [Compound 329] | < 100 nM

Next, values leading:

EC50 | Structure (SMILES)
< 100 nM | COCCCNS(=O)(=O)c1sc(N2CCCN(c3ccc(-c4cc(F)ccc4F)cc3)C2=O)nc1C [Compound 416]
< 100 nM | Cc1nc(N2CCCN(c3ccc(-c4ccccc4C(F)(F)F)cc3)C2=O)sc1S(N)(=O)=O [Compound 196]
< 100 nM | Cc1nc(N2C[C@@H](C)CN(c3ccc(-c4cc(F)ccc4F)cc3)C2=O)sc1S(N)(=O)=O (single isomer, unassigned) [Compound 320]
< 100 nM | Cc1nc(N2CC(O)CN(c3ccc(-c4cc(F)ccc4F)cc3)C2=O)sc1S(N)(=O)=O (centres unmarked) [Compound 353, 2-(3-(2′,5′-difluoro-[1,1′-biphenyl]-4-yl)-5-hydroxy-2-oxotetrahydropyrimidin-1(2H)-yl)-4-methylthiazole-5-sulfonamide]
< 100 nM | Cc1nc(N2CCCN(c3ccc(-c4nc(C#N)cs4)cc3)C2=O)sc1S(N)(=O)=O [Compound 48]
< 100 nM | Cc1nc(N2CCCN(c3ccc(-c4cc(F)cc5c4ccn5C(F)F)cc3)C2=O)sc1S(N)(=O)=O [Compound 299]
< 100 nM | Cc1nc(N2CCCN(c3ccc(-c4snc5c(F)cc(F)cc45)cc3)C2=O)sc1S(N)(=O)=O [Compound 306]
< 100 nM | Cc1nc(N2CCCN(c3ccc(-c4cc(C#N)cc5nsnc45)cc3)C2=O)sc1S(N)(=O)=O [Compound 304]
< 100 nM | Cc1nc(N2CCCN(c3ccc(-c4cc(Cl)ccc4F)cc3)C2=O)sc1S(N)(=O)=O [Compound 27]
< 100 nM | Cc1nc(N2CCCN(c3ccc(-c4cc(F)cc(C(F)F)c4)cc3)C2=O)sc1S(N)(=O)=O [Compound 222]
< 100 nM | Cc1nc(N2CCCN(c3ccc(-c4cccc5c(C)cnn45)cc3)C2=O)sc1S(N)(=O)=O [Compound 247]
< 100 nM | COc1ccc(F)cc1-c1ccc(N2C[C@H](C)CN(c3nc(C)c(S(N)(=O)=O)s3)C2=O)cc1 (single isomer, unassigned) [Compound 331]
< 100 nM | Cc1nc(N2CC[C@@H](C)N(c3ccc(-c4cc(F)ccc4F)cc3)C2=O)sc1S(N)(=O)=O (single isomer, unassigned) [Compound 333]
< 100 nM | Cc1nc(N2CCCN(c3ccc(-c4cc(Cl)ccn4)cc3)C2=O)sc1S(N)(=O)=O [Compound 185]
< 100 nM | Cc1nc(N2CCCN(c3ccc(-c4cc(Cl)cc(Cl)c4F)cc3)C2=O)sc1S(N)(=O)=O [Compound 213]
< 100 nM | Cc1nc(N2CCCN(c3ccc(-c4cc(F)cc(C(F)F)c4F)cc3)C2=O)sc1S(N)(=O)=O [Compound 217]
< 100 nM | Cc1nc(N2CCCN(c3ccc(-c4ncccc4F)cc3)C2=O)sc1S(=O)(=O)NC1CC1 [Compound 409]
< 100 nM | CONS(=O)(=O)c1sc(N2CCCN(c3ccc(-c4cc(F)ccc4F)cc3)C2=O)nc1C [Compound 386]

EC50 | Structure (SMILES)
< 100 nM | Cc1nc(N2C[C@H](C)CN(c3ccc(-c4ccccc4)cc3)C2=O)sc1S(N)(=O)=O (single isomer, unassigned) [Compound 327]
< 100 nM | Cc1nc(N2CCCN(c3ccc(-c4cc(C5(C#N)CC5)ccc4F)cc3)C2=O)sc1S(N)(=O)=O [Compound 208]
< 100 nM | Cc1cc(Cl)c(F)c(-c2ccc(N3CCCN(c4nc(C)c(S(N)(=O)=O)s4)C3=O)cc2)n1 [Compound 236]
< 100 nM | CNS(=O)(=O)c1sc(N2CCCN(c3ccc(-c4cccc5cc(N)ncc45)cc3)C2=O)nc1C [Compound 411]
< 100 nM | Cc1nc(N2CCCN(c3ccc(-c4cc(C(F)(F)F)cc5c4ccn5C)cc3)C2=O)sc1S(N)(=O)=O [Compound 246]
< 100 nM | Cc1nc(N2CCCN(c3ccc(-c4cccc5c4OCCO5)cc3)C2=O)sc1S(N)(=O)=O [Compound 249]
< 100 nM | Cc1nc(N2C[C@@H](C(F)(F)F)CN(c3ccc(-c4cc(F)ccc4F)cc3)C2=O)sc1S(N)(=O)=O (single isomer, unassigned) [Compound 371]
< 100 nM | CCC[S@](=N)(=O)c1sc(N2CCCN(c3ccc(-c4cc(F)cc(F)c4F)cc3)C2=O)nc1C (single isomer, unassigned) [Compound 425]
< 100 nM | Cc1nc(N2CCCCN(c3ccc(-c4cc(F)ccc4F)cc3)C2=O)sc1S(C)(=N)=O (centres unmarked) [Compound 154]
< 100 nM | Cc1nc(N2CCCCN(c3ccc(-c4cccc5ncsc45)cc3)C2=O)sc1[S@](C)(=N)=O (single isomer, unassigned) [Compound 430]
< 100 nM | Cc1nc(N2CC3(CCCC3)CN(c3ccc(-c4cccc5ncsc45)cc3)C2=O)sc1S(N)(=O)=O [Compound 337]
< 100 nM | Cc1cc(F)cc(-c2ccc(N3CCCN(c4nc(C)c(S(N)(=O)=O)s4)C3=O)cc2)n1 [Compound 237]
< 100 nM | Cc1nc(N2CC(C#N)CN(c3ccc(-c4cc(F)ccc4F)cc3)C2=O)sc1S(N)(=O)=O (centres unmarked) [Compound 360, 2-(5-cyano-3-(2′,5′-difluoro-[1,1′-biphenyl]-4-yl)-2-oxotetrahydropyrimidin-1(2H)-yl)-4-methylthiazole-5-sulfonamide]
< 100 nM | Cc1nc(N2CCCN(c3ccc(-c4cc(F)cc5nc(C6CC6)sc45)cc3)C2=O)sc1S(N)(=O)=O [Compound 253]
< 100 nM | Cc1nc(N2C[C@H](C)CN(c3ccc(-c4cc(F)ccc4F)cc3)C2=O)sc1S(N)(=O)=O (single isomer, unassigned) [Compound 319]
< 100 nM | Cc1nc(N2C[C@@H](O)CN(c3ccc(-c4cc(F)ccc4F)cc3)C2=O)sc1S(N)(=O)=O (single isomer, unassigned) [Compound 355]
< 100 nM | Cc1nc(N2CCCN(c3ccc(-c4cccc(Cl)c4)cc3)C2=O)sc1S(N)(=O)=O [Compound 191]
< 100 nM | Cc1nc(N2CCCN(c3ccc(-c4cc(F)ccc4F)cc3)C2=O)sc1S(=O)(=O)NCC(F)(F)CO [Compound 392]

Same assay, conditions: Vero cells, 160 TCID50 HSV-2 G strain, 5 days, cell viability

EC50 | Structure (SMILES)
< 100 nM | Cc1nc(N2C[C@@H](C#N)CN(c3ccc(-c4cc(F)ccc4F)cc3)C2=O)sc1S(N)(=O)=O (single isomer, unassigned) [Compound 377]
